From ChEMBL document CHEMBL1201862, “PubChem BioAssay data set” (2004)
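Each compound was tested at five concentrations against cells in 96-well plates for 48 hours. Abbreviation: GI50, concentration required for 50% inhibition of growth.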 The source made the active and inactive calls. Rule as the data show it: active = GI50 up to about 1.1 µM and inactive = higher.

How the values were obtained:
Assay in all cases: DTP human tumour cell line panel, 48 h
HT-29 = test system: HT-29
HOP-62 = test system: HOP-62
OVCAR-3 = test system: OVCAR-3
LOX IMVI = test system: LOX IMVI
U-251 = test system: U-251
MDA-N = test system: MDA-N
HCT-15 = test system: HCT-15
CAKI-1 = test system: CAKI-1
MDA-MB-435 = test system: MDA-MB-435
BT-549 = test system: BT-549
SF-539 = test system: SF-539
UO-31 = test system: UO-31
TK-10 = test system: TK-10
SN12C = test system: SN12C
SNB-75 = test system: SNB-75
786-0 = test system: 786-0
ACHN = test system: ACHN
SF-268 = test system: SF-268
COLO 205 = test system: COLO 205
MCF7 = test system: MCF7
KM12 = test system: KM12
SR = test system: SR
EKVX = test system: EKVX
IGROV-1 = test system: IGROV-1
UACC-62 = test system: UACC-62
DU-145 = test system: DU-145
NCI-H460 = test system: NCI-H460
T47D = test system: T47D
Malme-3M = test system: Malme-3M
HL-60 = test system: HL-60
SNB-19 = test system: SNB-19
NCI-H522 = test system: NCI-H522
M14 = test system: M14
SF-295 = test system: SF-295
OVCAR-8 = test system: OVCAR-8
RXF 393 = test system: RXF 393
PC-3 = test system: PC-3
SK-MEL-28 = test system: SK-MEL-28
A498 = test system: A498
A549 = test system: A549
NCI/ADR-RES = test system: NCI/ADR-RES
MOLT-4 = test system: MOLT-4
OVCAR-4 = test system: OVCAR-4
UACC-257 = test system: UACC-257
SK-MEL-5 = test system: SK-MEL-5
SK-OV-3 = test system: SK-OV-3
NCI-H23 = test system: NCI-H23
HOP-92 = test system: HOP-92
RPMI-8226 = test system: RPMI-8226
MDA-MB-231 = test system: MDA-MB-231
Hs-578T = test system: Hs-578T
SK-MEL-2 = test system: SK-MEL-2
SW-620 = test system: SW-620
K562 = test system: K562
CCRF-CEM = test system: CCRF-CEM
OVCAR-5 = test system: OVCAR-5

## COc1ccc(CC2COc3cc(O)cc(O)c3C2=O)cc1O (stereo unspecified)
HT-29
  GI50: 13.6 µM (inactive)
HOP-62
  GI50: 5.13 µM (inactive)
OVCAR-3
  GI50: 2.3 µM (inactive)
LOX IMVI
  GI50: 8.83 µM (inactive)
U-251
  GI50: 4.89 µM (inactive)
MDA-N
  GI50: 1.47 µM (inactive)
HCT-15
  GI50: 3.16 µM
CAKI-1
  GI50: 4.88 µM (inactive)
MDA-MB-435
  GI50: 1.32 µM (inactive)
BT-549
  GI50: 82.2 µM (inactive)
SF-539
  GI50: 2.97 µM (inactive)
UO-31
  GI50: 17 µM (inactive)
TK-10
  GI50: 15.4 µM (inactive)
SN12C
  GI50: 8.34 µM (inactive)
SNB-75
  GI50: 1.37 µM (inactive)
786-0
  GI50: 9.75 µM (inactive)
ACHN
  GI50: 24.4 µM (inactive)
SF-268
  GI50: 14.7 µM (inactive)
COLO 205
  GI50: 20.4 µM (inactive)
MCF7
  GI50: 6.21 µM (inactive)
KM12
  GI50: 2.81 µM (inactive)
SR
  GI50: 1.03 µM (active)
EKVX
  GI50: > 100 µM (inactive)
IGROV-1
  GI50: 4.23 µM (inactive)
UACC-62
  GI50: 8.57 µM (inactive)
DU-145
  GI50: 9.48 µM (inactive)
NCI-H460
  GI50: 6.15 µM (inactive)
T47D
  GI50: 3.99 µM (inactive)
Malme-3M
  GI50: 4.21 µM (inactive)
HL-60
  GI50: 2.4 µM (inactive)
SNB-19
  GI50: 4.83 µM (inactive)
NCI-H522
  GI50: 4.7 µM (inactive)
M14
  GI50: 3.86 µM (inactive)
SF-295
  GI50: 4.3 µM (inactive)
OVCAR-8
  GI50: 11.9 µM (inactive)
RXF 393
  GI50: 24.5 µM (inactive)
PC-3
  GI50: 7.08 µM (inactive)
SK-MEL-28
  GI50: 3.75 µM (inactive)
A498
  GI50: 99.3 µM (inactive)
A549
  GI50: 11.9 µM (inactive)
NCI/ADR-RES
  GI50: 2.64 µM (inactive)
MOLT-4
  GI50: 4.3 µM (inactive)
OVCAR-4
  GI50: 11.8 µM (inactive)
UACC-257
  GI50: > 100 µM (inactive)
SK-MEL-5
  GI50: 5.13 µM (inactive)
SK-OV-3
  GI50: 5.64 µM (inactive)
NCI-H23
  GI50: 16.6 µM (inactive)
HOP-92
  GI50: 22.3 µM (inactive)
RPMI-8226
  GI50: 3.01 µM (inactive)
MDA-MB-231
  GI50: 6.49 µM (inactive)
Hs-578T
  GI50: 2.4 µM (inactive)
SK-MEL-2
  GI50: 3.81 µM (inactive)
SW-620
  GI50: 3.56 µM (inactive)
K562
  GI50: 3.13 µM (inactive)
CCRF-CEM
  GI50: 3.4 µM (inactive)
OVCAR-5
  GI50: 12.3 µM (inactive)
